The values that follow come from patent publication US20230226152A1, “INTERLEUKIN-2 POLYPEPTIDE CONJUGATES AND METHODS OF USE THEREOF” (Ambrx, Inc., priority 2020, published 2023).

The test deals with CTLL-2 cells. The test is described as follows: CTLL-2 cell expansion / proliferation (binding) assay. In kind it is cell-based. On the procedure: T cell expansion test of IL-2 variants in CTLL-2 cells. CTLL-2 cell expansion assay was performed using transiently expressed F42 variant supernatant from transfected engineered CHO cells. […] Cell proliferation was performed using Cell Titer Glo (Promega, WI). Luminescent signal was read on TECAN genios pro. […] A general procedure for studying the IL-2 variants of the present invention is shown in the following:
Utilizing a CTLL-2 cell expansion assay as disclosed in the Examples, 20 different IL-2 variants including 16 originally selected sites (wild type included) and 4 additional sites (K32, K48, K49, K76) known in the art were screened (Charych, D., et al., PLoS One, 12(7): p. e0179431, 2017). […] Identified variants were further analyzed for their binding capabilities after PEGylation.

Take “F42: IL-2 with unnatural amino acid (pAF) at F42, SEQ ID NO: 9”: the EC50 result (transiently expressed variant supernatant from engineered CHO cells, Cell Titer Glo) is “around 0.24 ng/mL”. Also, the “function retained compared to wild type control” value (wild type IL-2 = 100% proliferation) amounted to 95%.
